Assay results: ChEMBL document CHEMBL1156089, “Anthranilic sulfonamide CCK1/CCK2 dual receptor antagonists I: discovery of CCKR1 selectivity in a previously CCKR2-selective lead series” (Bioorg Med Chem Lett, 2009)

Experiments:
[1] = biological target: T1, Cholecystokinin receptor type A (Homo sapiens, UniProt P32238); test: Displacement of [125I]-CCK-8S from CCK1R after 100 mins by liquid scintillation counting
T1 sequence (P32238 whole entry): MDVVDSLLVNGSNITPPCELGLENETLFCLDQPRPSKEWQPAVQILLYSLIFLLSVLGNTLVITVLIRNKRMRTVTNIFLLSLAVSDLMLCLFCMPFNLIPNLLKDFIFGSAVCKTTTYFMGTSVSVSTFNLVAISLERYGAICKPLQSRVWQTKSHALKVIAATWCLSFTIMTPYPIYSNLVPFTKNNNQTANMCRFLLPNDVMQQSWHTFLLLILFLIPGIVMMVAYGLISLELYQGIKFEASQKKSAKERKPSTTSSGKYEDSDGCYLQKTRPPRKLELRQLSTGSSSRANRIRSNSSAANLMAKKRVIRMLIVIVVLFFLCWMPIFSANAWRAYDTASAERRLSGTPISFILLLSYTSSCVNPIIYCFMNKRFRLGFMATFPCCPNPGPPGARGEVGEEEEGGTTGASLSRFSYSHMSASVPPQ

[2] = biological target: T2, Gastrin/cholecystokinin type B receptor (Homo sapiens, UniProt P32239); test: Displacement of [125I]-CCK-8S from CCK2R after 100 mins by liquid scintillation counting
T2 sequence (P32239 whole entry): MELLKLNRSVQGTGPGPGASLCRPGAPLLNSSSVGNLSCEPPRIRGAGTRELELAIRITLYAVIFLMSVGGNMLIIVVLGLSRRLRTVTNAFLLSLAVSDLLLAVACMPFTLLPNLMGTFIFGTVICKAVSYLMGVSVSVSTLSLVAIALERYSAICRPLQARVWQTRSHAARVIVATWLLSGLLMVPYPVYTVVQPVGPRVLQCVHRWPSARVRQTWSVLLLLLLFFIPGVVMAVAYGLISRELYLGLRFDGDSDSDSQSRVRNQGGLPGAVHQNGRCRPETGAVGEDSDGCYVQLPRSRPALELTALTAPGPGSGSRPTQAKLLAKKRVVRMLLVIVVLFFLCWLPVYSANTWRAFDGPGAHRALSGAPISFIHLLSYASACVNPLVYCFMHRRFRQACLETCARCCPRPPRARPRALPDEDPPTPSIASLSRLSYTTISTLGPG

O=C(NCCc1ccc(Cl)cc1)c1ccc(Cl)cc1NS(=O)(=O)c1cccc2nsnc12
Ki [1]: 1 µM
Ki [2]: > 10 µM

CC(CNC(=O)c1ccc(Cl)cc1NS(=O)(=O)c1cccc2nsnc12)c1ccc(Cl)cc1 (racemic)
Ki [1]: 0.1 µM

C[C@H](c1ccc(Cl)c(Cl)c1)[C@@H](NC(=O)c1ccc(Cl)cc1NS(=O)(=O)c1cccc2nsnc12)C(=O)O
Ki [1]: 0.2 µM
Ki [2]: 1.58 µM

O=C(NCCc1ccccc1)c1ccc(Br)cc1NS(=O)(=O)c1cccc2nsnc12
Ki [1]: 0.398 µM
Ki [2]: 0.631 µM

O=C(NCCCc1ccccc1)c1ccc(Cl)cc1NS(=O)(=O)c1cccc2nsnc12
Ki [1]: 2 µM
Ki [2]: 1 µM

O=C(NCCc1ccc(Cl)c(Cl)c1)c1ccc(Cl)cc1NS(=O)(=O)c1cccc2nsnc12
Ki [1]: 0.0794 µM
Ki [2]: 7.94 µM

CN(CCc1ccccc1)C(=O)c1ccc(Cl)cc1NS(=O)(=O)c1cccc2nsnc12
Ki [1]: 3.98 µM
Ki [2]: 0.316 µM

O=C(NCc1ccccc1)c1ccc(Cl)cc1NS(=O)(=O)c1cccc2nsnc12
Ki [1]: > 10 µM

O=C(N[C@H](Cc1ccccc1)C(=O)O)c1ccc(Cl)cc1NS(=O)(=O)c1cccc2nsnc12
Ki [1]: 3.16 µM
Ki [2]: 0.158 µM

CC(C)(c1ccc(Cl)cc1)[C@H](NC(=O)c1ccc(Cl)cc1NS(=O)(=O)c1cccc2nsnc12)C(=O)O
Ki [2]: 1 µM

O=C(NCCc1ccccc1)c1ccc(Cl)cc1NS(=O)(=O)c1cccc2nsnc12
Ki [1]: 0.158 µM
Ki [2]: 6.31 µM

O=C(NCC(c1ccc(Cl)cc1)c1ccc(Cl)cc1)c1ccc(Cl)cc1NS(=O)(=O)c1cccc2nsnc12
Ki [2]: > 10 µM

O=C(N[C@@H](Cc1ccc(Cl)cc1)C(=O)O)c1ccc(Cl)cc1NS(=O)(=O)c1cccc2nsnc12
Ki [1]: 2 µM
Ki [2]: 0.0631 µM

O=C(N[C@H](Cc1ccc(Cl)cc1)C(=O)O)c1ccc(Cl)cc1NS(=O)(=O)c1cccc2nsnc12
Ki [1]: 0.316 µM
Ki [2]: 0.631 µM

O=C(N[C@H](C(=O)O)C(c1ccc(Cl)cc1)c1ccc(Cl)cc1)c1ccc(Cl)cc1NS(=O)(=O)c1cccc2nsnc12
Ki [1]: > 10 µM

O=C(N[C@@H](Cc1ccccc1)C(=O)O)c1ccc(Cl)cc1NS(=O)(=O)c1cccc2nsnc12
Ki [1]: 3.98 µM
Ki [2]: 0.0794 µM
